The record followed here is US20240000750A1, “METHOD FOR PREPARING CRYSTALLINE PARTICLES OF 1-(3-CYANO-1-ISOPROPYL-INDOLE-5-YL)PYRAZOLE-4-CARBOXYLIC ACID, AND PHARMACEUTICAL COMPOSITION COMPRISING SAME” (LG CHEM, LTD., priority 2020, published 2024).

Type in all cases: physicochemical
The nature of data set [1]: Bulk density and tapped density of crystalline particles (flowability: Carr index, Hausner ratio). As to the method: The tapped density and bulk density were analyzed to analyze flowability and cohesiveness. tapped density means the changed volume when the container is tapped after packing the powder, which means that the voids between particles are reduced. In addition, the porosity can be confirmed by checking the changes in bulk density (apparent density) and tapped density. In general, the flowability and cohesiveness of the granular powder were evaluated using Carr index (CI) (Carr, 1965) and Hausner ratio (HR) (Hausner, 1967).
The bulk density and tapped density of crystalline particles prepared according to Preparation Examples, Examples and Comparative Examples were measured. The bulk density is the volume when about 50 g of granular powder is put into the measuring cylinder, and the tapped density is the volume when there is no further change in volume after lightly tapping the measuring cylinder on the floor at a constant height 100 times. The bulk density refers to the volume occupied by a certain mass of powder, which refers to the sum of the volume of the powder and the volume of voids between particles as the total volume.
The flowability and cohesiveness of the granular powder were calculated by the Carr index of Equation (3) and the Hausner ratio of Equation (4) using the bulk density and tapped density measured above according to the method of Jinapong et al (2008). […]

Data set [2] in a line: Particle size distribution of crystalline particles, wet method, laser diffraction particle size analyzer. Here is the method:
The volume average particle distribution and particle size distribution of the crystalline particles prepared in Preparation Examples, Examples and Comparative Examples were measured by a wet method using a laser diffraction particle size analyzer.
It can be said that the particle size distribution is better as the values of DV10/DV50 and DV50/DV90 used as indicators are larger. Here, DV10, DV50, and DV90 mean particle diameters of particles corresponding to 10%, 50%, and 90% of the total number of particles, respectively, when the measured particles are arranged in order from smallest to largest in particle size.

Data set [3] can be described thus: Solubility in organic solvents and water.

In the case of `CC(C)n1cc(C#N)c2cc(-n3cc(C(=O)O)cn3)ccc21` [Synthesis Example 1-4, 1-(3-cyano-1-isopropyl-indol-5-yl)pyrazole-4-carboxylic acid], the “Flowability and cohesiveness (in words)” value in data set [1] is on record as “very good”. In addition, the “Particle size distribution (in words)” value in data set [2] is given as “very good”. `CC(C)n1cc(C#N)c2cc(-n3cc(C(=O)O)cn3)ccc21` [compound of Formula 1, 1-(3-cyano-1-isopropyl-indol-5-yl)pyrazole-4-carboxylic acid]: the Solubility result in data set [3] was “very low”.
